Consider 18 compounds from paper PMC8086025, “A benzopyran with antiarrhythmic activity is an inhibitor of Kir3.1-containing potassium channels” (The Journal of Biological Chemistry, 2021).

For one data set, the target named is T1, Chemokines CCR1 (Homo sapiens, UniProt P32246).
T1 construct: expressed in transfected cells; host or cells: HEK-293 cells
T1 sequence (P32246 1-355): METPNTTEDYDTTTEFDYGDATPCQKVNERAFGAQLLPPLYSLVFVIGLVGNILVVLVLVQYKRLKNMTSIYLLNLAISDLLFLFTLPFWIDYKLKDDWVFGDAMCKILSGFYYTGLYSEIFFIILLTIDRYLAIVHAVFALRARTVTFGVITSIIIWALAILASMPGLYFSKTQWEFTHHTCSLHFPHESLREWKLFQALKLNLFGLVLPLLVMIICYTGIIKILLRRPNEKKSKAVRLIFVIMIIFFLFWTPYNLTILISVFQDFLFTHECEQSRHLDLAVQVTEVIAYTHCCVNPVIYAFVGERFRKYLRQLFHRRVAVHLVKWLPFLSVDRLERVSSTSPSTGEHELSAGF
Kind of data set: Radioligand binding, [125I]MIP-1a. The following applies: reference compound run for the assay.

The next data set relates to Somatostatin sst. Nature of the data set: Radioligand binding, [125I]Tyr11-somatostatin-14, AtT-20 cells. The following applies: reference compound run for the assay.
Another data set has as its target Bombesin BB. Kind of data set: Radioligand binding, [125I][Tyr4]bombesin. Set-up: species or system rat. The following applies: reference compound run for the assay.
In the next data set the test system is IKACh. Nature of the data set: In vivo ECG, carbachol-induced heart rate slowing in anesthetized mice. The following applies: 300 μl of 200 μM i.p. On the procedure: We tested the in vivo effects of BP-G1 versus those of BP-G1(SR) on heart rate in anesthetized adult mice (Fig. 8). ECG was continuously recorded. Panel A is the ECG showing that after carbachol (300 μl of 200 μM) was administered, i.p. (red mark), the heart decelerated, with a visible RR prolongation. About 10 min after carbachol injection, BP-G1 was delivered via the jugular vein (40 μl of 240 μM) (green mark). Within 5 min, there was a reversal of carbachol’s effects on the heart rate. Panel B is a control mouse showing heart rate slowing after carbachol administration (red mark).
Mice were anesthetized (1.5% isofluorane), and a 1.2 French octapolar catheter (Millar) with a drug delivery port was placed transvenously, through the jugular vein, into the right atrium. Continuous ECG was recorded using the Animal Bio Amp and PowerLab 4/35 Advanced Instruments apparatus. […] Saline control at the same volume was performed. Results are averages ±SD.

The next data set concerns the target Adrenergic α2. Kind of data set: Radioligand binding, [3H]prazosin. On the set-up: species or system rat. The following applies: reference compound run for the assay.
The target of a further data set is Purinergic Channels P2X. Kind of data set: Radioligand binding, [3H]a,b-MeATP, rat urinary bladder. The following applies: reference compound run for the assay.
The next data set concerns the target T2, Kir3.1/4 channel (Homo sapiens, UniProt P48544+P48549).
T2 sequence (P48549 1-501): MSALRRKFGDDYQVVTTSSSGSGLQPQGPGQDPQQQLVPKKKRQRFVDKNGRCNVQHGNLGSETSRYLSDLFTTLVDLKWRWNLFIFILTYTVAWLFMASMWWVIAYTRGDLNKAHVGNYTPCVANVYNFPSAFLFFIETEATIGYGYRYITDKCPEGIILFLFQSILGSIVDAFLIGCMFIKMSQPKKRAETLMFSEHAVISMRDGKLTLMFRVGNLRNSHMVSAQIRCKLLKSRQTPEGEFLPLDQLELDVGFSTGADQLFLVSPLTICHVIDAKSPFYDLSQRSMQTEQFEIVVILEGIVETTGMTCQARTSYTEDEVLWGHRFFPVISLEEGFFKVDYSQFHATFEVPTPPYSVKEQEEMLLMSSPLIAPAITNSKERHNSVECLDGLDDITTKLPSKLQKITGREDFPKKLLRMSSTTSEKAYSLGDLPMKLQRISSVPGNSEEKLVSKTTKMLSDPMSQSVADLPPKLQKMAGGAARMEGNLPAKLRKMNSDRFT
T2 sequence (P48544 1-419): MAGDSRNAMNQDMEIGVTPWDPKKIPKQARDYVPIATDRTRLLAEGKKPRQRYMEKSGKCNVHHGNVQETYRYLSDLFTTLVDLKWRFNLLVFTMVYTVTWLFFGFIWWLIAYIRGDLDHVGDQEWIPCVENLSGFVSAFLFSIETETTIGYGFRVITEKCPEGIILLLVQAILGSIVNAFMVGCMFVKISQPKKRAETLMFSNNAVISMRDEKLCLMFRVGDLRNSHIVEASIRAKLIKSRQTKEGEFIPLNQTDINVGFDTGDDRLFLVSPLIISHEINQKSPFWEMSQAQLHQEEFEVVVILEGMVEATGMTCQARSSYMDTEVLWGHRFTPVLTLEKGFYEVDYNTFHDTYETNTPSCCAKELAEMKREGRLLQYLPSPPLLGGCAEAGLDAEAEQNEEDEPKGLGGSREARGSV
Kind of data set: TEVC in Xenopus oocytes, Kir3.1/4. Set-up: expressed in transfected cells; host or cells: Xenopus laevis oocytes (cRNA injection). The following applies: 1 μM, TEVC. In kind it is cell-based. As to the method: X. laevis oocytes were isolated and microinjected as previously described ([6]). Human Kir3.1, mouse Kir3.2, and human Kir3.4 DNA constructs were used for electrophysiology experiments. All cRNA constructs were injected in the amount of 2 ng per oocyte. Injected oocytes were incubated for 2 to 3 days at 18 °C to allow for expression. Whole-cell oocyte currents were then measured using a GeneClamp 500 amplifier (Axon Instruments). Microelectrodes had resistances of 0.5 to 1 megohm using a 3M KCl solution in 1.4% agarose. Oocytes were perfused with a low K^+ (LK) solution ND96 (2 mM KCl, 96 mM NaCl, 1 mM MgCl2, 1.8 mM CaCl2, 5 mM HEPES-Na) to establish a baseline for the recordings. Basal current was measured in a high potassium (HK) solution ND96K (96 mM KCl, 10 mM HEPES-K, 1 mM MgCl2, 1.8 mM CaCl2). To block the current, the oocyte chamber was perfused with 4 mM BaCl2 in ND96K. Only the Barium-sensitive current was used for statistical analysis. To measure the inhibitory activity of the channels, 1 μM BP-G1 in ND96K (HK) was used. Typically, oocytes were held at 0 mV (EK) and the current was monitored constantly using a ramp protocol with a command potential from −80 to +80 mV. Current amplitude was measured at the end of a 1 s sweep. All currents were analyzed when they reached steady state. Error bars in the figures represent SD (N > 4).

For the next data set, the system named is TNF-α. Kind of data set: Radioligand binding, [125I]TNF-a, U-937 cells. The following applies: reference compound run for the assay.
Data set [1] addresses GABA Cl- channel (GABA-gated). Kind of data set: Radioligand binding, [35S]TBPS. The following applies: reference compound run for the assay. On the set-up: species or system rat.
The target in another data set is T3, 5-HT2C (Homo sapiens, UniProt P28335).
T3 construct: expressed in transfected cells; host or cells: HEK-293 cells
T3 sequence (P28335 33-458): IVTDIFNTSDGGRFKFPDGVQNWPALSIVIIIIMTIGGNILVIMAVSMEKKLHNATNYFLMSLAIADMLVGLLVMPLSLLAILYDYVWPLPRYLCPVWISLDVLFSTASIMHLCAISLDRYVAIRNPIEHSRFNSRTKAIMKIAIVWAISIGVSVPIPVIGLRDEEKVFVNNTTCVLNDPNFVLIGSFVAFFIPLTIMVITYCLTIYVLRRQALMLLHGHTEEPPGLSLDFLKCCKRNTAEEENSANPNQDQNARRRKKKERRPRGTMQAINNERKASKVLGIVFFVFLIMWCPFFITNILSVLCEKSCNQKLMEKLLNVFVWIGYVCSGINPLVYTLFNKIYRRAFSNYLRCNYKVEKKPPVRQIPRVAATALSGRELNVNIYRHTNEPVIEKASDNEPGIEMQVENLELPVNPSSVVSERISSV
Kind of data set: Radioligand binding, [3H]mesulergine. The following applies: read-out: Reference: IC50.

Another data set has as its target T4, Muscarinic M5 (Homo sapiens, UniProt P08912).
T4 construct: expressed in transfected cells; host or cells: CHO cells
Nature of the data set: Radioligand binding, [3H]4-DAMP. The following applies: reference compound run for the assay.

The target of another data set is T5, 5-HT2B (Homo sapiens, UniProt P41595).
T5 construct: expressed in transfected cells; host or cells: CHO cells
T5 sequence (P41595 whole entry): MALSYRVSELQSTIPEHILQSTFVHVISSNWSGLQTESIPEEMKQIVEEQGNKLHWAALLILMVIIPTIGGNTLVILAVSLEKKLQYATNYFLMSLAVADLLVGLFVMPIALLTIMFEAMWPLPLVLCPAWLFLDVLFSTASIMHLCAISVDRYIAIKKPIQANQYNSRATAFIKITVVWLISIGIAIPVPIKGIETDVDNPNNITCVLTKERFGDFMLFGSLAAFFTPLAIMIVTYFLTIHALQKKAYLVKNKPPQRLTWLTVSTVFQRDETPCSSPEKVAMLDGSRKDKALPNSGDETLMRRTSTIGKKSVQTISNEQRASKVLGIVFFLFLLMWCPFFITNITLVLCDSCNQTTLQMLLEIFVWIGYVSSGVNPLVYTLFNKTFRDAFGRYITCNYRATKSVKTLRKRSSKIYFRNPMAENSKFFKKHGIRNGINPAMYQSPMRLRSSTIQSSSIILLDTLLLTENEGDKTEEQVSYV
Kind of data set: Radioligand binding, [125I](±)DOI. The following applies: reference compound run for the assay.

For a further data set, the target named is SKCa. Nature of the data set: Radioligand binding, [125I]apamin. The following applies: reference compound run for the assay. Set-up: species or system rat.
The subject of a further data set is Cav1.2. The following applies: read-out: Published IC50, Cav1.2; ICa,L; published NTC-801 data ref 27; cited from earlier work.
The subject of the next data set is Kir3.1/3.4. Set-up: method as in earlier work. The following applies: oocyte; published NTC-801 data ref 27; cited from earlier work.
Another data set relates to Kir3.1/3.2. Set-up: method as in earlier work. The following applies: published NTC-801 data ref 27; cited from earlier work.
Another data set concerns the target T6, Kir6.2/SUR2A (Homo sapiens, UniProt O60706+Q14654).
T6 construct: Andrew Tinker, UCL; host or cells: HEK293
The following applies: IKATP; published NTC-801 data ref 27; cited from earlier work.

In another data set the test system is Kv7.1/KCNE1. The following applies: published NTC-801 data ref 27; cited from earlier work.
The next data set deals with T7, Kir2.1 (Homo sapiens, UniProt P63252).
T7 construct: host or cells: HEK293
T7 sequence (P63252 whole entry): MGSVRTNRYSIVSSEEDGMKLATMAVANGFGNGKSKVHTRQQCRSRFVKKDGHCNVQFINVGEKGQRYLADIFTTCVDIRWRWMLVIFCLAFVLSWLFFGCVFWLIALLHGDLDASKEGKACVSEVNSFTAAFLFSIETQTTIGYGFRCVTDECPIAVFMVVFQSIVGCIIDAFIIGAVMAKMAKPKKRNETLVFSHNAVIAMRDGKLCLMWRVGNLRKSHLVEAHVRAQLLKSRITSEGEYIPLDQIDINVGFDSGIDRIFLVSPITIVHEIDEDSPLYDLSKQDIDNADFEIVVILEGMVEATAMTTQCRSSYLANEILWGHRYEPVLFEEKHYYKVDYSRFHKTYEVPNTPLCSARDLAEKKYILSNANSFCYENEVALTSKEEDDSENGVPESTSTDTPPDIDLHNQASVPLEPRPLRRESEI
The following applies: published NTC-801 data ref 27; cited from earlier work.

The subject of another data set is GP IKACh. On the set-up: method as in earlier work. The following applies: published NTC-801 data ref 27; cited from earlier work.
The target in another data set is Kv1.5 (Homo sapiens, UniProt P22460). The following applies: published NTC-801 data ref 27; cited from earlier work.
Chain of Kv1.5 (P22460 whole entry): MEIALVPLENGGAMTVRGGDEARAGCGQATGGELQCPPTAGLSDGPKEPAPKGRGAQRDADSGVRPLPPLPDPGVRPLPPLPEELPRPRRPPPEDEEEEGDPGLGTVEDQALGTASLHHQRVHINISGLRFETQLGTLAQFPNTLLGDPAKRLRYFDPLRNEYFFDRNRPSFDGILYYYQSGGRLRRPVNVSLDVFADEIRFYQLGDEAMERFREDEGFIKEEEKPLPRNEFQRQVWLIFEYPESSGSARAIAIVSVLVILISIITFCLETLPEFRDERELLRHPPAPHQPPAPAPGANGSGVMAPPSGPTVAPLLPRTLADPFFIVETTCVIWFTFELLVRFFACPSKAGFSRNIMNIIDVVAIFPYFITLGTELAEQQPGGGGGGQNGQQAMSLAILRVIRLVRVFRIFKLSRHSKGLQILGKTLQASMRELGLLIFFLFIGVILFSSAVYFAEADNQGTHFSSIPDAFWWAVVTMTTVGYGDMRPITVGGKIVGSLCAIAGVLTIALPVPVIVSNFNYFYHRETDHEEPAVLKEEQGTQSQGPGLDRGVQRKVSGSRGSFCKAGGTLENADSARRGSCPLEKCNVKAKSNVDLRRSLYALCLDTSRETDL
The test system of another data set is HCN4. Set-up: method as in earlier work. The following applies: published NTC-801 data ref 27; cited from earlier work.
The next data set deals with Nav1.5 (Homo sapiens, UniProt Q14524). The following applies: read-out: Published IC50, Nav1.5 (1Hz); published NTC-801 data ref 27; cited from earlier work.
The target of the next data set is Kv4.3 (Homo sapiens, UniProt Q9UK17). The following applies: published NTC-801 data ref 27; cited from earlier work.
Chain of Kv4.3 (Q9UK17 whole entry): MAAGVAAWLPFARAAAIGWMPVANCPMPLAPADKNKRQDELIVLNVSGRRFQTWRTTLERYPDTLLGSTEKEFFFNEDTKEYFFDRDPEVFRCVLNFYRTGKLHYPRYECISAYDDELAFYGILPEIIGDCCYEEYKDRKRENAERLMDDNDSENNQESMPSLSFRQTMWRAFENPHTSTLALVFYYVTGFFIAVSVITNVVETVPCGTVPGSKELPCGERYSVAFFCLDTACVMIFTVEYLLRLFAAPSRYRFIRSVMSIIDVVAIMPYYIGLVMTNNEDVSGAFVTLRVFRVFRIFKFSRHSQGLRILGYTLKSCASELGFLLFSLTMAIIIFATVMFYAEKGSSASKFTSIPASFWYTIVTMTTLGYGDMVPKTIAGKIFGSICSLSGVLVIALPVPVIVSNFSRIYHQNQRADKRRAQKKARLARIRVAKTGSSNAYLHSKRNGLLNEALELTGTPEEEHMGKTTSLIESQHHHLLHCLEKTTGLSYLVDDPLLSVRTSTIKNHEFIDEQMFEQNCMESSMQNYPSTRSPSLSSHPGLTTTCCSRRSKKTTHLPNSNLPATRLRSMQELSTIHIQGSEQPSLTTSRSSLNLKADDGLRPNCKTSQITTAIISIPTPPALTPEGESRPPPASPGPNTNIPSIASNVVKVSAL
Another data set concerns hERG. The following applies: read-out: Published IC50, hERG; published NTC-801 data ref 27; cited from earlier work.
The target in data set [2] is Benzodiazepine BDZ Central. Kind of data set: Radioligand binding, [3H]flunitrazepam. On the set-up: species or system rat. The following applies: read-out: Reference: IC50.
A further data set concerns the target Purinergic Channels P2Y. Nature of the data set: Radioligand binding, [35S]dATPaS. On the set-up: species or system rat. The following applies: reference compound run for the assay.

pIC50: −log10 of the molar value. “Also recorded” adds a separate entry of the source. Ends that are not written are not given here.

T4 sequence (P08912 whole entry): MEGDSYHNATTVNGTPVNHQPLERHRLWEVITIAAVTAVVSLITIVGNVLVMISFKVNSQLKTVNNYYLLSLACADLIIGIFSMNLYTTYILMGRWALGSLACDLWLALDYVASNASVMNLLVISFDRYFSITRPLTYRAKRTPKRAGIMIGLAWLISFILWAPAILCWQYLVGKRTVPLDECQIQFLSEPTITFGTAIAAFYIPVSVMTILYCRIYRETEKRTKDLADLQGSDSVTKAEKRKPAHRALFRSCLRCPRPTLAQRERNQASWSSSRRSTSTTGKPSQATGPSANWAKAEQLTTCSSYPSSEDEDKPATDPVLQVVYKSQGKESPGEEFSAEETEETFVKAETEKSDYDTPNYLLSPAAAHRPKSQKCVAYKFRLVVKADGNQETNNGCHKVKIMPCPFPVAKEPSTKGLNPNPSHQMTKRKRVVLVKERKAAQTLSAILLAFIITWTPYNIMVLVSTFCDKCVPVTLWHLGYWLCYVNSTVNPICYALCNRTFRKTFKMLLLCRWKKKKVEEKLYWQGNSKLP

As to MIP-1a: assay reference compound, in the data set with Chemokines CCR1, the pIC50 was 10.40. In the data set on Somatostatin sst, somatostatin-14 had a pIC50 of 9.70. For bombesin, the pIC50 on Bombesin BB was 9.69. Take `C[N+](C)(C)CCOC(N)=O` [Carbachol, carbachol, reference compound]: the “RR interval after carbachol” value with IKACh (BP-G1 group, baseline 155.2 ± 16.3 ms) was 474.2 ± 60.7 ms; in the data set on IKACh (saline control group, baseline 168.6 ± 10.7 ms), 476.7 ± 77.8 ms.

For `COc1cc2nc(N3CCN(C(=O)c4ccco4)CC3)nc(N)c2cc1OC` [prazosin], the pIC50 on Adrenergic α2 was 9.74. On to `Nc1ncnc2c1ncn2[C@@H]1O[C@H](COP(=O)(O)CP(=O)(O)OP(=O)(O)O)[C@@H](O)[C@H]1O` [a,b-MeATP], for which the negative-log IC50 (pIC50) at Purinergic Channels P2X was 8.46.

Take `Cc1cc(CO)nc2cc3c(cc12)OC(C)(C)C=C3` [GAT1573, (2,2,9-trimethyl-2H-pyrano[2,3-g]quinolin-7-yl)methanol]: on Kir3.1/4 channel, the “inhibitory activity on Kir3.1/4 channel” value is given as “not active”. Compound TNF-a had a negative-log IC50 (pIC50) in the data set with TNF-α of 10.00.

Regarding `Cc1ccnc2cc3c(cc12)OC(C)(C)[C@H](O)[C@H]3NCCc1ccccc1` [GAT1588, (3R,4S)-2,2,9-trimethyl-4-(phenethylamino)-3,4-dihydro-2H-pyrano[2,3-g]quinolin-3-ol], the “inhibitory activity on Kir3.1/4 channel” value on Kir3.1/4 channel is reported as “retained comparable inhibitory activity to BP-G1; also recorded: inhibited the channel with comparable activity to BP-G1”. As to `C=C(C)[C@@H]1[C@H]2OC(=O)[C@@H]1[C@]1(O)C[C@H]3O[C@]34C(=O)O[C@H]2[C@]14C` [picrotoxinin, reference compound], the pIC50 in [1] was 6.82.

For the compound `COc1cc(OC)c(C(=O)CCCCN2CCC3(CC2)NC(=O)NC3=O)cc1NS(=O)(=O)c1ccc(C(F)(F)F)cc1` [RS 102221], on 5-HT2C, the pIC50 is 8.51. The compound `C[N+]1(C)CCC(OC(=O)C(c2ccccc2)c2ccccc2)CC1` [4-DAMP] showed a pIC50 at Muscarinic M5 of 9.28. The compound `COc1cc(CC(C)N)c(OC)cc1I` (racemic) [(±)DOI] had a pIC50 at 5-HT2B of 8.30.

In turn, “apamin (CNCKAPETALCARRCQQH; ends and bridges not checked; cysteine pairing not given here; UniProt P01500 28-45, looked up)” had a pIC50 at SKCa of 11.04.

`Cc1cc(CO)nc2cc3c(cc12)OC(C)(C)[C@H](O)[C@H]3NCCc1ccccc1` [NTC-801]: the pIC50 is below 4.52 in the data set on Cav1.2; 9.15 with Kir3.1/3.4; 7.47 with Kir3.1/3.2; 5.11 on Kir6.2/SUR2A; below 4.52 with Kv7.1/KCNE1; below 4.52 on Kir2.1. The pIC50 in the data set with GP IKACh is 8.15; on Kv1.5 it was below 4.52; with HCN4, below 4.52; at Nav1.5, 5.08; on Kv4.3, below 4.94; with hERG it was below 4.52. Regarding `CN1C(=O)CN=C(c2ccccc2)c2cc(Cl)ccc21` [diazepam], the pIC50 in [2] was 8.07. Consider `Cc1ccnc2cc3c(cc12)OC(C)(C)C=C3` [GAT1572, 2,2,9-trimethyl-2H-pyrano[2,3-g]quinoline], for which the “inhibitory activity on Kir3.1/4 channel” value on Kir3.1/4 channel is recorded as “not active”.

`Nc1ncnc2c1ncn2[C@H]1C[C@H](O)[C@@H](COP(O)(=S)OP(=O)(O)OP(=O)(O)O)O1` (stereo partly drawn) [dATPaS] gave a pIC50 on Purinergic Channels P2Y of 7.70.
